PMC7588595, “Small-molecule active pharmaceutical ingredients of approved cancer therapeutics inhibit human aspartate/asparagine-β-hydroxylase” (Bioorganic & Medicinal Chemistry, 2020)
Where a name gives a salt, the structure may show the parent alone.

Molecular target: T1, human AspH (His6-AspH315–758) (Homo sapiens, UniProt Q12797)
T1 construct: N-Terminally His6-tagged human AspH315–758 (His6-AspH315–758) was produced in Escherichia coli BL21 (DE3) cells; made in house; host or cells: Escherichia coli BL21 (DE3), pET-28a(+) vector
T1 sequence (Q12797 315-758): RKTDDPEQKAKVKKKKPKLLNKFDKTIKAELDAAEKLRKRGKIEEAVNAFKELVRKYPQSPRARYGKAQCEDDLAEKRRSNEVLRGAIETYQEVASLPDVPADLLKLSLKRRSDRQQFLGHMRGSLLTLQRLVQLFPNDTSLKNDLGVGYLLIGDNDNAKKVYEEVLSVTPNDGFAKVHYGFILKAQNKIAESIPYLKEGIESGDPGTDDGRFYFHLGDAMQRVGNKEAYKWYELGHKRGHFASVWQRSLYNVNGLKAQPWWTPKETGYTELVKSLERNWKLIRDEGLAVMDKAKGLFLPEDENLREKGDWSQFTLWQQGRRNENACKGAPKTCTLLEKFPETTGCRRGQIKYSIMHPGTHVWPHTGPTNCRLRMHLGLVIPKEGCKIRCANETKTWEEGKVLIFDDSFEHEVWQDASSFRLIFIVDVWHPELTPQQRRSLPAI
Assay: SPE-MS AspH inhibition assay (hFX-CP101-119 substrate hydroxylation)
Type: biochemical
Details: AspH-inhibitor screening; for Plate 1 (% inhibition): 384-well Plate 1; for Plate 1 (% conversion): 384-well Plate 1, substrate conversion; for Plate 1-duplicate (% conversion): substrate conversion

Row | Plate 1 (% inhibition) [%] | Plate 1 (% conversion) [%] | Plate 1-duplicate (% inhibition) [%] | Plate 1-duplicate (% conversion) [%] | Compound
1 | 5.12 | 47.39 | 1.33 | 51.38 | Nc1nc(F)nc2c1ncn2[C@@H]1O[C@H](COP(=O)(O)O)[C@@H](O)[C@@H]1O [Fludarabine phosphate]
2 | 7.47 | 46.30 | 5.36 | 49.38 | O=c1[nH]cc(F)c(=O)[nH]1 [Fluorouracil]
3 | 0.33 | 49.60 | 10.24 | 46.97 | CC(C)C(=O)Nc1ccc([N+](=O)[O-])c(C(F)(F)F)c1 [Flutamide]
4 | 40.68 | 30.96 | 22.43 | 40.92 | C[C@]12CC[C@@H]3c4ccc(O)cc4C[C@@H](CCCCCCCCC[S+]([O-])CCCC(F)(F)C(F)(F)F)[C@H]3[C@@H]1CC[C@@H]2O (stereo partly shown) [Fulvestrant]
5 | 1.37 | 49.12 | 2.57 | 50.77 | CS(=O)(=O)N1CCN(Cc2cc3nc(-c4cccc5[nH]ncc45)nc(N4CCOCC4)c3s2)CC1 [GDC-0941_Pictilisib]
6 | 2.44 | 48.62 | 1.54 | 51.28 | Cc1c(CN2CCN(C(=O)[C@H](C)O)CC2)sc2c(N3CCOCC3)nc(-c3cnc(N)nc3)nc12 [GDC-0980]
7 | -0.37 | 49.92 | -2.41 | 53.24 | CC(=O)Nc1cccc(-n2c(=O)n(C3CC3)c(=O)c3c(Nc4ccc(I)cc4F)n(C)c(=O)c(C)c32)c1 [GSK1120212_Trametinib]
8 | 8.17 | 45.98 | 17.15 | 43.54 | COc1ncc(-c2ccc3nccc(-c4ccnnc4)c3c2)cc1NS(=O)(=O)c1ccc(F)cc1F [GSK2126458]
9 | -0.51 | 49.98 | 13.40 | 45.39 | Cc1c(Cn2c(C)nc3c(C(=O)O)cc(N4CCOCC4)cc32)cccc1C(F)(F)F [GSK2636771]
10 | -27.40 | 62.40 | -34.23 | 69.02 | CCn1c(-c2nonc2N)nc2cnc(Oc3cccc(NC(=O)c4ccc(OCCN5CCOCC5)cc4)c3)cc21 [GSK 269962]
11 | 57.76 | 23.08 | 56.10 | 24.22 | O=C(O)c1ccc(-c2c[nH]c3ncc(-c4ccccc4)cc23)cc1C1CCCC1 [GSK 650394]
12 | 15.61 | 42.54 | 8.63 | 47.76 | C[C@@H]1C=C2C(=O)O[C@@H]3CC[C@H](C1)[C@]23O [Galiellalactone]
13 | -37.34 | 66.99 | -37.51 | 70.65 | COc1cc2ncnc(Nc3ccc(F)c(Cl)c3)c2cc1OCCCN1CCOCC1 [Gefitinib]
14 | 1.09 | 49.25 | 10.34 | 46.91 | Nc1ccn([C@@H]2O[C@H](CO)[C@@H](O)C2(F)F)c(=O)n1 [Gemcitabine hydrochloride]
15 | -21.27 | 59.57 | -15.30 | 59.63 | CC(C)C[C@H](NC(=O)[C@@H](COC(C)(C)C)NC(=O)[C@H](Cc1ccc(O)cc1)NC(=O)[C@H](CO)NC(=O)[C@H](Cc1c[nH]c2ccccc12)NC(=O)[C@H](Cc1cnc[nH]1)NC(=O)[C@@H]1CCC(=O)N1)C(=O)N[C@@H](CCCNC(=N)N)C(=O)N1CCC[C@H]1C(=O)NNC(N)=O [Goserelin acetate]
16 | 1.01 | 49.28 | 12.84 | 45.67 | O=S(=O)(c1cccc2cnccc12)N1CCCNCC1 [HA-1077 (Fasudil)]

Row | Plate 1 (% inhibition) [%] | Plate 1 (% conversion) [%] | Plate 1-duplicate (% inhibition) [%] | Plate 1-duplicate (% conversion) [%] | Compound
17 | 6.00 | 46.98 | 5.43 | 49.35 | COC(=O)C[C@](O)(CCCC(C)(C)O)C(=O)O[C@@H]1C(OC)=C[C@]23CCCN2CCc2cc4c(cc2[C@H]13)OCO4 [Homoharringtonine]
18 | 16.85 | 41.97 | 8.68 | 47.74 | NC(=O)NO [Hydroxyurea]
19 | 3.78 | 48.01 | 1.98 | 51.06 | COc1cc2c(cc1-c1c(C)noc1C)ncc1[nH]c(=O)n([C@H](C)c3ccccn3)c12 [I-BET151 (GSK1210151A)]
20 | 4.31 | 47.76 | 3.98 | 50.07 | N#CC[C@H](C1CCCC1)n1cc(-c2ncnc3[nH]ccc23)cn1 [INCB018424 (free base, Ruxolitinib)]
21 | 4.97 | 47.46 | 4.58 | 49.77 | CC(C)n1nc(-c2ccc3oc(N)nc3c2)c2c(N)ncnc21 [INK128]
22 | 6.62 | 46.69 | 5.28 | 49.42 | CC(=O)[C@]1(O)Cc2c(O)c3c(c(O)c2[C@@H](O[C@H]2C[C@H](N)[C@H](O)[C@H](C)O2)C1)C(=O)c1ccccc1C3=O [Idarubicin HCl]
23 | 9.55 | 45.34 | 7.71 | 48.22 | CC[C@H](Nc1ncnc2[nH]cnc12)c1nc2cccc(F)c2c(=O)n1-c1ccccc1 [Idelalisib]
24 | 3.84 | 47.98 | 5.27 | 49.43 | CC(C)Cn1cnc2c(N)nc3ccccc3c21 [Imiquimod]
25 | 6.32 | 46.83 | 5.00 | 49.56 | NC(=O)c1ccc(I)c([N+](=O)[O-])c1 [Iniparib (BSI-201, IND-71677)]
26 | -1.48 | 50.43 | 0.58 | 51.76 | CCc1c2c(nc3ccc(OC(=O)N4CCC(N5CCCCC5)CC4)cc13)-c1cc3c(c(=O)n1C2)COC(=O)[C@]3(O)CC.Cl [Irinotecan hydrochloride]
27 | 1.66 | 48.98 | -3.53 | 53.79 | CCc1c2c(nc3ccc(OC(=O)N4CCC(N5CCCCC5)CC4)cc13)-c1cc3c(c(=O)n1C2)COC(=O)[C@]3(O)CC [Irinotecan]
28 | -1.86 | 50.61 | -1.35 | 52.71 | C/C(=C\c1csc(C)n1)[C@@H]1C[C@@H]2O[C@]2(C)CCC[C@H](C)[C@H](O)[C@@H](C)C(=O)C(C)(C)[C@@H](O)CC(=O)N1 [Ixabepilone]
29 | 72.42 | 16.31 | 72.94 | 15.87 | CC(C)C[C@H](NC(=O)CNC(=O)c1cc(Cl)ccc1Cl)B1OC(=O)C(CC(=O)O)(CC(=O)O)O1 [Ixazomib citrate]
30 | 32.19 | 34.89 | 30.40 | 36.96 | c1ccc2c(CCNc3ccc(Nc4ccncc4)cc3)c[nH]c2c1 [JNJ 26854165 (Serdemetan)]
31 | -7.35 | 53.15 | -6.18 | 55.11 | Cn1cc(CNCC2CCN(c3ncc(C(=O)NO)cn3)CC2)c2ccccc21 [JNJ-26481585_Quisinostat]

Row | Compound | Plate 1 (% inhibition) [%] | Plate 1 (% conversion) [%] | Plate 1-duplicate (% inhibition) [%] | Plate 1-duplicate (% conversion) [%]
32 | CC(C)NC[C@@H](C(=O)N1CCN(c2ncnc3c2[C@H](C)C[C@H]3O)CC1)c1ccc(Cl)cc1 [GDC-0068] | -1.30 | 50.35 | 4.48 | 49.82
33 | O=P1(NCCCl)OCCCN1CCCl (stereo not shown) [Ifosfamide] | 7.87 | 46.12 | 4.50 | 49.81
34 | O=C(Nc1ccncc1)C(=O)c1cn(Cc2ccc(Cl)cc2)c2ccccc12 [Indibulin] | 45.36 | 28.80 | 2.65 | 50.73
